Reference: PubChem BioAssay AID330 (DTP/NCI, 2004)
Several values for one entry are separate records, joined by “and”; a condition that tells them apart may be missing. Equal values may be shown once. Inconclusive results and toxic doses are left out. How the source made its calls: active means survival T/C of 150% or more; inactive means T/C below 125% in these data.

Tested on: P388 leukemia ip, CD2F1 mice, survival T/C
Assay: NCI In Vivo Anticancer Drug Screen. Data for tumor model P388 Leukemia (intraperitoneal) in CD2F1 (CDF1) mice
Conditions: endpoint: median survival time, higher = longer survival
Procedure, shortened: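 Mice carrying the transplanted tumor received test compound or vehicle. Survival was recorded in each group, and the value is the treated-group measurement divided by that of the vehicle-treated control group.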

[1] = dose: 50.0 mg/kg/injection, schedule: Q01DX005 (ip), vehicle: Klucel (hydroxypropylcellulose) (HPC)
[2] = dose: 100.0 mg/kg/injection, schedule: Q01DX005 (ip), vehicle: Klucel (hydroxypropylcellulose) (HPC)
[3] = dose: 200.0 mg/kg/injection, schedule: Q01DX005 (ip), vehicle: Klucel (hydroxypropylcellulose) (HPC)
[4] = dose: 50.0 mg/kg/injection, schedule: Q01DX009 (ip), vehicle: Klucel (hydroxypropylcellulose) (HPC)
[5] = dose: 100.0 mg/kg/injection, schedule: Q01DX009 (ip), vehicle: Klucel (hydroxypropylcellulose) (HPC)
[6] = dose: 200.0 mg/kg/injection, schedule: Q01DX009 (ip), vehicle: Klucel (hydroxypropylcellulose) (HPC)
[7] = dose: 50.0 mg/kg/injection, schedule: Q01DX009 (ip), vehicle: saline
[8] = dose: 100.0 mg/kg/injection, schedule: Q01DX009 (ip), vehicle: saline
[9] = dose: 200.0 mg/kg/injection, schedule: Q01DX009 (ip), vehicle: saline
[10] = dose: 400.0 mg/kg/injection, schedule: Q01DX009 (ip), vehicle: saline
[11] = dose: 12.5 mg/kg/injection, schedule: Q01DX009 (ip), vehicle: Klucel (hydroxypropylcellulose) (HPC)
[12] = dose: 25.0 mg/kg/injection, schedule: Q01DX009 (ip), vehicle: Klucel (hydroxypropylcellulose) (HPC)
[13] = dose: 50.0 mg/kg/injection, schedule: Q01DX009 (ip), vehicle: saline with Tween-80
[14] = dose: 100.0 mg/kg/injection, schedule: Q01DX009 (ip), vehicle: saline with Tween-80
[15] = dose: 200.0 mg/kg/injection, schedule: Q01DX009 (ip), vehicle: saline with Tween-80
[16] = dose: 12.5 mg/kg/injection, schedule: Q01DX009 (ip), vehicle: saline with Tween-80
[17] = dose: 25.0 mg/kg/injection, schedule: Q01DX009 (ip), vehicle: saline with Tween-80

Measured: T/C

CC(C)(C)N(O)N=O.CC(C)(C)N(O)N=O.[Cu]
inactive: dose: 6.25 mg/kg/injection, schedule: Q01DX001 (ip), vehicle: saline with Tween-80 103 % of control

NNC(=O)CCC(N)C(=O)O (stereo not drawn)
inactive: dose: 50.0 mg/kg/injection, schedule: Q01DX009 (ip), vehicle: saline sonified 100 % of control | dose: 50.0 mg/kg/injection, schedule: Q04DX003 (ip), vehicle: saline with Tween-80 95 % of control | dose: 100.0 mg/kg/injection, schedule: Q01DX009 (ip), vehicle: saline sonified 113 % of control | dose: 100.0 mg/kg/injection, schedule: Q04DX003 (ip), vehicle: saline with Tween-80 90 % of control | dose: 200.0 mg/kg/injection, schedule: Q04DX003 (ip), vehicle: saline with Tween-80 109 % of control

O=C(NN=C1CCCCC1)C(=O)Nc1cccc(C(F)(F)F)c1
inactive: [1] 97 % of control | [2] 92 % of control | [3] 88 % of control

CCOc1ccccc1/C=C1\CCc2ccccc2C1=O
inactive: [4] 100 % of control | [5] 100 % of control | [6] 102 % of control

Cc1[nH]n(-c2cc(S(=O)(=O)O)ccc2Cl)c(=O)c1N=Nc1ccc(C(=O)Nc2ccc(S(=O)(=O)O)cc2)cc1
inactive: [1] 99 % of control | [2] 92 % of control | [3] 99 % of control

CN(CCO)C1=CC(=O)C(N2c3ccccc3Nc3cc(O)c(N(C)CCO)cc32)=CC1=O
inactive: dose: 50.0 mg/kg/injection, schedule: Q01DX009 (ip), vehicle: suspension in saline 101 % of control | dose: 100.0 mg/kg/injection, schedule: Q01DX009 (ip), vehicle: suspension in saline 99 % of control | dose: 200.0 mg/kg/injection, schedule: Q01DX009 (ip), vehicle: suspension in saline 105 % of control

O=CC(=O)Cc1ccccc1
inactive: [7] 99 % of control and 98 % of control | [8] 105 % of control and 98 % of control | [9] 100 % of control and 92 % of control | [10] 99 % of control and 100 % of control

Cc1cc(C)n2nc(CC#N)c(C#N)c2n1
inactive: [11] 109 % of control | [12] 100 % of control and 107 % of control and 97 % of control | [4] 100 % of control and 105 % of control and 109 % of control | [5] 123 % of control and 94 % of control and 97 % of control

COc1ncc(Br)cc1C(=O)NCCc1ccc(S(=O)(=O)NC(=O)NC2CCCCC2)cc1
inactive: [13] 99 % of control | [14] 92 % of control

CCc1ccc(S(=O)(=O)O)cc1
inactive: [13] 100 % of control | [14] 94 % of control | [15] 98 % of control

COc1ccc2c(c1)N(S(=O)(=O)c1ccc(C)cc1)CC1=C2CCP1(C)=O (stereo not drawn)
inactive: dose: 100.0 mg/kg/injection, schedule: Q01DX001 (ip), vehicle: saline 111 % of control | dose: 200.0 mg/kg/injection, schedule: Q01DX001 (ip), vehicle: saline 111 % of control | dose: 400.0 mg/kg/injection, schedule: Q01DX001 (ip), vehicle: saline 112 % of control

CCN1CC2(COC)C(O)CC(OC)C34C5CC6(O)C(OC)C=C(C5C6OC(=O)c5ccc(OC)c(OC)c5)C(C(OC)C23)C14 (stereo not drawn)
inactive: dose: 0.05 mg/kg/injection, schedule: Q01DX009 (ip), vehicle: Klucel (hydroxypropylcellulose) (HPC) 90 % of control | dose: 0.05 mg/kg/injection, schedule: Q01DX009 (ip), vehicle: saline with Tween-80 102 % of control | dose: 0.1 mg/kg/injection, schedule: Q01DX009 (ip), vehicle: Klucel (hydroxypropylcellulose) (HPC) 91 % of control | dose: 0.1 mg/kg/injection, schedule: Q01DX009 (ip), vehicle: saline with Tween-80 96 % of control | dose: 0.2 mg/kg/injection, schedule: Q01DX009 (ip), vehicle: Klucel (hydroxypropylcellulose) (HPC) 100 % of control | dose: 0.2 mg/kg/injection, schedule: Q01DX009 (ip), vehicle: saline with Tween-80 91 % of control | dose: 0.4 mg/kg/injection, schedule: Q01DX009 (ip), vehicle: Klucel (hydroxypropylcellulose) (HPC) 116 % of control | dose: 0.4 mg/kg/injection, schedule: Q01DX009 (ip), vehicle: saline with Tween-80 91 % of control

O=P(OCCCl)(OCCCl)C(Nc1cccc2ccccc12)c1ccc(N(CCCl)CCCl)cc1 (stereo not drawn)
inactive: dose: 60.0 mg/kg/injection, schedule: Q01DX005 (ip), vehicle: saline with Tween-80 98 % of control | dose: 120.0 mg/kg/injection, schedule: Q01DX005 (ip), vehicle: saline with Tween-80 95 % of control | dose: 240.0 mg/kg/injection, schedule: Q01DX005 (ip), vehicle: saline with Tween-80 99 % of control

CCOC(=O)c1cnn(-c2ccccc2)c1N
inactive: [16] 99 % of control | dose: 12.5 mg/kg/injection, schedule: Q01DX009 (ip), vehicle: saline 99 % of control | [17] 109 % of control | dose: 25.0 mg/kg/injection, schedule: Q01DX009 (ip), vehicle: saline 102 % of control | [13] 101 % of control | [7] 99 % of control | [14] 96 % of control | [8] 103 % of control | [15] 96 % of control | [9] 94 % of control | dose: 400.0 mg/kg/injection, schedule: Q01DX009 (ip), vehicle: saline with Tween-80 99 % of control | [10] 105 % of control

CC/C(=C\c1ccccc1)[N+](=O)[O-]
inactive: [16] 103 % of control | [17] 123 % of control

C[n+]1c(-c2cccc(-c3ccccc3)c2)c2cc([N+](=O)[O-])ccc2c2ccccc21
inactive: dose: 1.56 mg/kg/injection, schedule: Q01DX009 (ip), vehicle: Klucel (hydroxypropylcellulose) (HPC) 103 % of control | dose: 3.13 mg/kg/injection, schedule: Q01DX009 (ip), vehicle: Klucel (hydroxypropylcellulose) (HPC) 103 % of control | dose: 6.25 mg/kg/injection, schedule: Q01DX009 (ip), vehicle: Klucel (hydroxypropylcellulose) (HPC) 106 % of control | [11] 111 % of control | [12] 109 % of control

C1=NC(C2CC2)c2ccc3c([nH]c4ccccc43)c2N1 (stereo not drawn)
inactive: dose: 100.0 mg/kg/injection, schedule: Q04DX002 (ip), vehicle: Klucel (hydroxypropylcellulose) (HPC) 101 % of control | dose: 200.0 mg/kg/injection, schedule: Q04DX002 (ip), vehicle: Klucel (hydroxypropylcellulose) (HPC) 90 % of control

N#CC(/C=C/c1ccccc1)Nc1ccccc1N (stereo not drawn)
inactive: dose: 100.0 mg/kg/injection, schedule: Q01DX001 (ip), vehicle: saline with Tween-80 100 % of control | dose: 400.0 mg/kg/injection, schedule: Q01DX001 (ip), vehicle: saline with Tween-80 100 % of control

C=CCNC(=S)/N=C1\N=S(C)(=O)c2ccccc21 (stereo not drawn)
inactive: [4] 96 % of control | [5] 94 % of control | [6] 102 % of control

C=C1CC2(CCC3(C)C(CCC4C5CCC(=O)C5(C)CCC43)C2)OC1=O (stereo not drawn)
inactive: dose: 100.0 mg/kg/injection, schedule: Q04DX002 (ip), vehicle: saline with Tween-80 95 % of control | dose: 200.0 mg/kg/injection, schedule: Q04DX002 (ip), vehicle: saline with Tween-80 93 % of control | dose: 400.0 mg/kg/injection, schedule: Q04DX002 (ip), vehicle: saline with Tween-80 96 % of control

CC(C)(C)c1ccc2c(O)c(C(C)(C)C)cc(-c3ccccc3)c2c1
inactive: [7] 107 % of control | [8] 110 % of control | [9] 106 % of control

CC1(C)CC(C)(C)c2c1oc(=O)c1c3c(oc(=O)c21)C(C)(C)CC3(C)C
inactive: dose: 3.12 mg/kg/injection, schedule: Q01DX005 (ip), vehicle: Klucel (hydroxypropylcellulose) (HPC) 96 % of control | dose: 6.25 mg/kg/injection, schedule: Q01DX005 (ip), vehicle: Klucel (hydroxypropylcellulose) (HPC) 100 % of control | dose: 12.5 mg/kg/injection, schedule: Q01DX005 (ip), vehicle: Klucel (hydroxypropylcellulose) (HPC) 87 % of control | dose: 25.0 mg/kg/injection, schedule: Q01DX005 (ip), vehicle: Klucel (hydroxypropylcellulose) (HPC) 87 % of control and 90 % of control | [2] 90 % of control and 91 % of control

O=[n+]1c2ccccc2n([O-])c2cn(-c3ccccc3)c(-c3ccccc3)c21
inactive: dose: 50.0 mg/kg/injection, schedule: Q01DX005 (ip), vehicle: saline with Tween-80 100 % of control | dose: 100.0 mg/kg/injection, schedule: Q01DX005 (ip), vehicle: saline with Tween-80 100 % of control | dose: 200.0 mg/kg/injection, schedule: Q01DX005 (ip), vehicle: saline with Tween-80 101 % of control

CC1=C/C(=N\NS(=O)(=O)c2ccc([N+](=O)[O-])cc2)CC(C)(C)C1
inactive: [5] 87 % of control | [6] 98 % of control | dose: 400.0 mg/kg/injection, schedule: Q01DX009 (ip), vehicle: Klucel (hydroxypropylcellulose) (HPC) 100 % of control
